Assays:
Assay type in all cases: cell-based
M3 muscarinic receptor = target: T1, M3 muscarinic receptor (Homo sapiens, UniProt P20309); test: Functional mobilization of intracellular calcium (FLIPR) in CHO cells expressing M3; details: for M3 Activity: CHO cells expressing M3, FLIPR calcium assay; for Emax: CHO, 100% efficacy = maximum response obtained with the Carbachol control
T1 construct: expressed in transfected cells; host or cells: CHO (M3-CHO)
Summary of the method: (§1)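 Recombinant CHO cells loaded with Fluo-3 AM or Calcium 3 dye in pH 7.4 buffer containing 1 mM probenecid, with 0.5% final DMSO. For agonism, compound is added directly. For inhibition, it is preincubated 15 min, or co-applied, before carbachol at EC80. FLIPR fluorescence (ex 488, em 540 nm) is recorded for 60 s.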

M1 muscarinic receptor = target: T2, M1 muscarinic receptor (Homo sapiens, UniProt P11229); test: Functional mobilization of intracellular calcium (FLIPR) in CHO cells expressing M1; details: for M1 Activity: CHO cells expressing M1, FLIPR calcium assay; for Emax: CHO, 100% efficacy = maximum response obtained with the Carbachol control
T2 construct: expressed in transfected cells; host or cells: CHO (M1-CHO)
T2 sequence (P11229 1-460): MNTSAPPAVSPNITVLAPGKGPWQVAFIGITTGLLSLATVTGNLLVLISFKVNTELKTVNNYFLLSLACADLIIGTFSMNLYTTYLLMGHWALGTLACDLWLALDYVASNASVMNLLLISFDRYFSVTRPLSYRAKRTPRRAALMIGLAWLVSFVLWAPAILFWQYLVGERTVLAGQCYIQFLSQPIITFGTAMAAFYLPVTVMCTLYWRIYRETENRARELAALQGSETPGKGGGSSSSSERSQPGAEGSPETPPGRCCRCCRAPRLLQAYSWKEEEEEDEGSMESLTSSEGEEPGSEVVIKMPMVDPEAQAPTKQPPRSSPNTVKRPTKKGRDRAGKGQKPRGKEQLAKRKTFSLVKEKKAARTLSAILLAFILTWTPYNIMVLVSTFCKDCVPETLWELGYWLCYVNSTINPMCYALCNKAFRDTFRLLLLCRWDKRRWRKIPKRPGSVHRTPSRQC
Summary of the method: as §1

M4 muscarinic receptor = target: T3, M4 muscarinic receptor (Homo sapiens, UniProt P08173); test: Functional mobilization of intracellular calcium (FLIPR) in CHO cells expressing M4; details: for M4 Activity: CHO cells expressing M4, FLIPR calcium assay; for Emax: CHO, 100% efficacy = maximum response obtained with the Carbachol control
T3 construct: expressed in transfected cells; host or cells: CHO (M4-CHO)
T3 sequence (P08173 1-479): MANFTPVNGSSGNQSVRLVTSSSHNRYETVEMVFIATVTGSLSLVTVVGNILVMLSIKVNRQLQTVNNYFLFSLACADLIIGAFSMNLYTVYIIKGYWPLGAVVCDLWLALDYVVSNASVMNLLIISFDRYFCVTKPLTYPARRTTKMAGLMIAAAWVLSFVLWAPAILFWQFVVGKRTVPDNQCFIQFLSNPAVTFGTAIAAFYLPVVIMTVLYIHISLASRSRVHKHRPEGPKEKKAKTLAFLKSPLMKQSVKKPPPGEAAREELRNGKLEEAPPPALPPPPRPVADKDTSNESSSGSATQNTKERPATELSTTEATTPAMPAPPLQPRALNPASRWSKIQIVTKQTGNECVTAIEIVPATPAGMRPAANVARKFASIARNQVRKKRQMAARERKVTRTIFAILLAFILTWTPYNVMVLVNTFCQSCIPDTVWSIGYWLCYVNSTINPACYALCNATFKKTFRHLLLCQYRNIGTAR
Summary of the method: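 Read-out: FLIPR fluorescence (ex 488, em 540 nm) over 60 s. Recombinant CHO lines are dye-loaded (Fluo-3 AM or Calcium 3) with 1 mM probenecid. For antagonist mode, compound is pre-incubated 15 min, or co-applied, then carbachol is added at 3× EC80 per subtype.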

M2 muscarinic receptor = target: T4, M2 muscarinic receptor (Homo sapiens, UniProt P08172); test: Functional mobilization of intracellular calcium (FLIPR) in CHO cells expressing M2; details: for M2 Activity: CHO cells expressing M2, FLIPR calcium assay; for Emax: CHO, 100% efficacy = maximum response obtained with the Carbachol control
T4 construct: expressed in transfected cells; host or cells: CHO (M2-CHO)
T4 sequence (P08172 1-466): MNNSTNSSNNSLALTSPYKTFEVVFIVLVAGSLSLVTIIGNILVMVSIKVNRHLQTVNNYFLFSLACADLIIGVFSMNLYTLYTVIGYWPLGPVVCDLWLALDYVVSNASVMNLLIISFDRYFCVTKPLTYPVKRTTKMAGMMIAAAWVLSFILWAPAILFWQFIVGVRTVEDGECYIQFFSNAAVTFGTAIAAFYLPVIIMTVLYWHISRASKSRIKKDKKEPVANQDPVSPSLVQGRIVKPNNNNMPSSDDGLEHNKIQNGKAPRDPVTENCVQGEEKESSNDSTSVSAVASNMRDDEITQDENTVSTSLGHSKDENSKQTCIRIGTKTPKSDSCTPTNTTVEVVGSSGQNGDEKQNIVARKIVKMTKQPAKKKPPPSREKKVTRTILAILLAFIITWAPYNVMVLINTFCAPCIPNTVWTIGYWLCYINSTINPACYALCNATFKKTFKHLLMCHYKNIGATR
Summary of the method: as §1

T1 sequence (P20309 whole entry): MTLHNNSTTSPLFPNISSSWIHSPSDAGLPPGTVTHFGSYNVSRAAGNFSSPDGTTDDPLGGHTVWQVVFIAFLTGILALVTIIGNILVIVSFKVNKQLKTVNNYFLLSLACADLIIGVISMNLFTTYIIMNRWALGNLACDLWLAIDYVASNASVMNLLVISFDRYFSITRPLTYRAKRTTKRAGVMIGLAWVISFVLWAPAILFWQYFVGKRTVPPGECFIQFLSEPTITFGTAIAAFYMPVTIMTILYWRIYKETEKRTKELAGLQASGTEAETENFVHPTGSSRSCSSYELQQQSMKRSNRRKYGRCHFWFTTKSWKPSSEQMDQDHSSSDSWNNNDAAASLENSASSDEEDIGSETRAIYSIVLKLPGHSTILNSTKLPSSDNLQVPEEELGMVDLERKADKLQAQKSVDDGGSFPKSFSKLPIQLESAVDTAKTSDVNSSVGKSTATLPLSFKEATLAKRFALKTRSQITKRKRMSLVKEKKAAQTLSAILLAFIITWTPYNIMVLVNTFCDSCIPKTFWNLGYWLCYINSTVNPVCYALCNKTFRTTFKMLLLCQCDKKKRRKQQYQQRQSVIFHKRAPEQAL

SMILES | M3 Activity (M3 muscarinic receptor) | Emax (M3 muscarinic receptor) | M1 Activity (M1 muscarinic receptor) | Emax (M1 muscarinic receptor) | M4 Activity (M4 muscarinic receptor) | Emax (M4 muscarinic receptor) | M2 Activity (M2 muscarinic receptor) | Emax (M2 muscarinic receptor)
CCCC(=O)N[C@H]1CC2(CCN(CCC(C)(C)C)CC2)c2ccccc21 [compound 264] | + (activity was measured to be greater than 5.0 μM) | < 25% | + (activity was measured to be greater than 5.0 μM) | < 25% | +++ (activity was measured to be less than 2.0 μM) | 25 to 100% | + (activity was measured to be greater than 5.0 μM) | < 25%
CC(C)CCN1CCC2(CC1)C[C@H](NC(=O)c1ccoc1)c1ccccc12 [compound 267] | + (activity was measured to be greater than 5.0 μM) | < 25% | + (activity was measured to be greater than 5.0 μM) | < 25% | + (activity was measured to be greater than 5.0 μM) | < 25% | + (activity was measured to be greater than 5.0 μM) | < 25%
CCC(CC)(CCC#N)CN1CCC2(CC1)C[C@H](NC(C)=O)c1ccccc12 [compound 269] | + (activity was measured to be greater than 5.0 μM) | < 25% | + (activity was measured to be greater than 5.0 μM) | 25 to 100% | ++ (activity was measured to be from 2.0 μM to 5.0 μM) | 25 to 100% | + (activity was measured to be greater than 5.0 μM) | < 25%
CCC(=O)N[C@H]1CC2(CCN(C(=O)OC(C)(C)C)CC2)c2ccccc21 [compound 271] | + (activity was measured to be greater than 5.0 μM) | < 25% | + (activity was measured to be greater than 5.0 μM) | < 25% | + (activity was measured to be greater than 5.0 μM) | < 25% | + (activity was measured to be greater than 5.0 μM) | < 25%
CC(=O)N[C@H]1CCC2(CCN(C(=O)OC(C)(C)C)CC2)c2ccccc21 [compound 272] | + (activity was measured to be greater than 5.0 μM) | < 25% | + (activity was measured to be greater than 5.0 μM) | < 25% | + (activity was measured to be greater than 5.0 μM) | < 25% | + (activity was measured to be greater than 5.0 μM) | < 25%
CC(=O)N[C@H]1CC2(CCN(CC(C)CCC=C(C)C)CC2)c2ccccc21 (stereo partly drawn) [compound 273] | + (activity was measured to be greater than 5.0 μM) | < 25% | +++ (activity was measured to be less than 2.0 μM) | 25 to 100% | +++ (activity was measured to be less than 2.0 μM) | 25 to 100% | + (activity was measured to be greater than 5.0 μM) | < 25%
CC(C)(C)OC(=O)N1CCC2(CC1)C[C@H](NC(=O)N1CCCC1)c1ccccc12 [compound 276] | + (activity was measured to be greater than 5.0 μM) | < 25% | + (activity was measured to be greater than 5.0 μM) | < 25% | + (activity was measured to be greater than 5.0 μM) | < 25% | + (activity was measured to be greater than 5.0 μM) | < 25%
CC(=O)N[C@H]1CC2(CCN(CCC(C)C)CC2)c2ccccc21 [compound 277] | + (activity was measured to be greater than 5.0 μM) | < 25% | ++ (activity was measured to be from 2.0 μM to 5.0 μM) | 25 to 100% | +++ (activity was measured to be less than 2.0 μM) | 25 to 100% | + (activity was measured to be greater than 5.0 μM) | < 25%
CC(C)(C)OC(=O)N1CCC2(CC1)C[C@H](NC(=O)C1CC1)c1ccccc12 [compound 279] | + (activity was measured to be greater than 5.0 μM) | < 25% | + (activity was measured to be greater than 5.0 μM) | < 25% | + (activity was measured to be greater than 5.0 μM) | < 25% | + (activity was measured to be greater than 5.0 μM) | < 25%
CC(=O)N[C@@H]1CCC2(CCN(C(=O)OC(C)(C)C)CC2)c2ccccc21 [compound 280] | + (activity was measured to be greater than 5.0 μM) | < 25% | + (activity was measured to be greater than 5.0 μM) | < 25% | + (activity was measured to be greater than 5.0 μM) | < 25% | + (activity was measured to be greater than 5.0 μM) | < 25%
CC(=O)N[C@H]1CC2(CCN(CCC(C)CCC=C(C)C)CC2)c2ccccc21 (stereo partly drawn) [compound 282] | + (activity was measured to be greater than 5.0 μM) | < 25% | +++ (activity was measured to be less than 2.0 μM) | 25 to 100% | + (activity was measured to be greater than 5.0 μM) | < 25% | + (activity was measured to be greater than 5.0 μM) | < 25%
Cc1ccc2c(c1)C(=O)CC21CCN(CCC(C)(C)C)CC1 [compound 288] | + (activity was measured to be greater than 5.0 μM) | < 25% | + (activity was measured to be greater than 5.0 μM) | 25 to 100% | ++ (activity was measured to be from 2.0 μM to 5.0 μM) | 25 to 100% | + (activity was measured to be greater than 5.0 μM) | < 25%
CC(=O)N[C@H]1CC2(CCN(CC(=O)N(C)C)CC2)c2ccccc21 [compound 289] | + (activity was measured to be greater than 5.0 μM) | < 25% | + (activity was measured to be greater than 5.0 μM) | < 25% | + (activity was measured to be greater than 5.0 μM) | < 25% | + (activity was measured to be greater than 5.0 μM) | < 25%
CC(=O)NC1CC2(CCN(C(C)C(C)C)CC2)c2ccccc21 (stereo not drawn) [compound 290] | + (activity was measured to be greater than 5.0 μM) | < 25% | + (activity was measured to be greater than 5.0 μM) | 25 to 100% | + (activity was measured to be greater than 5.0 μM) | 25 to 100% | + (activity was measured to be greater than 5.0 μM) | < 25%
CC(C)(C)CCN1CCC2(CC1)C[C@H](NC(=O)c1ccoc1)c1ccccc12 [compound 292] | + (activity was measured to be greater than 5.0 μM) | < 25% | + (activity was measured to be greater than 5.0 μM) | < 25% | + (activity was measured to be greater than 5.0 μM) | < 25% | + (activity was measured to be greater than 5.0 μM) | < 25%

— patent publication US8003660B2, “Modulators of muscarinic receptors” (Vertex Pharmaceuticals Incorporated, priority 2006, dated 2011)
